Results published in ChEMBL document CHEMBL1201862, “PubChem BioAssay data set” (2004).
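All cell lines were grown in 96-well plates and treated with compound for 48 hours. Here, GI50 denotes the concentration required for 50% inhibition of growth.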 Calls of active or inactive are those of the source. Rule as the data show it: active = GI50 up to about 1.1 µM and inactive = higher.

What was measured:
Assay in all cases: NCI-60 cell line screen, 48 h
HCC 2998 = system: HCC 2998
SN12C = system: SN12C
HOP-62 = system: HOP-62
NCI-H522 = system: NCI-H522
A549 = system: A549
SK-MEL-5 = system: SK-MEL-5
OVCAR-8 = system: OVCAR-8
SF-295 = system: SF-295
MDA-N = system: MDA-N
U-251 = system: U-251
OVCAR-5 = system: OVCAR-5
HCT-116 = system: HCT-116
SF-539 = system: SF-539
COLO 205 = system: COLO 205
HT-29 = system: HT-29
NCI/ADR-RES = system: NCI/ADR-RES
CAKI-1 = system: CAKI-1
OVCAR-4 = system: OVCAR-4
SNB-19 = system: SNB-19
RPMI-8226 = system: RPMI-8226

Row | Structure (SMILES) | GI50 (HCC 2998) | GI50 (SN12C) | GI50 (HOP-62) | GI50 (NCI-H522) | GI50 (A549) | GI50 (SK-MEL-5) | GI50 (OVCAR-8) | GI50 (SF-295) | GI50 (MDA-N) | GI50 (U-251) | GI50 (OVCAR-5) | GI50 (HCT-116) | GI50 (SF-539) | GI50 (COLO 205) | GI50 (HT-29) | GI50 (NCI/ADR-RES) | GI50 (CAKI-1) | GI50 (OVCAR-4) | GI50 (SNB-19) | GI50 (RPMI-8226)
1 | COc1c(-c2ccc3c(c2)OCO3)oc2cc3c(c(OC)c2c1=O)OCO3 [MELITERNATIN] | 26.9 µM (inactive) | 16 µM (inactive) | 15.4 µM (inactive) | 21.5 µM (inactive) | 20.2 µM (inactive) | 18.4 µM (inactive) | 19.1 µM (inactive) | 22.6 µM (inactive) | 18.5 µM (inactive) | 16.6 µM (inactive) | 29.8 µM (inactive) | 16.2 µM (inactive) | 16.3 µM (inactive) | 23.1 µM (inactive) | 23.3 µM (inactive) | 27.6 µM (inactive) | 23.8 µM (inactive) | 24.2 µM (inactive) | 18.4 µM (inactive) | –
2 | O=C1C=C(Nc2ccc(S(=O)(=O)Nc3nccs3)cc2)c2ccccc2C1=O | 22.2 µM (inactive) | 24.6 µM (inactive) | 15.4 µM (inactive) | 38.5 µM (inactive) | > 100 µM (inactive) | 19.9 µM (inactive) | 23.1 µM (inactive) | 18 µM (inactive) | 18.8 µM (inactive) | 21.6 µM (inactive) | 17.5 µM (inactive) | 34.5 µM (inactive) | 21.1 µM (inactive) | – | 19.1 µM (inactive) | 27.5 µM (inactive) | 26.8 µM (inactive) | 32.9 µM (inactive) | 29.4 µM (inactive) | 37.3 µM (inactive)
3 | CCC(=O)NC(NNS(=O)(=O)c1ccc(C)cc1)(C(F)(F)F)C(F)(F)F | > 10 µM (inactive) | – | 65.2 µM (inactive) | 30.7 µM (inactive) | 35.7 µM (inactive) | 50 µM (inactive) | 44.9 µM (inactive) | > 100 µM (inactive) | 18.5 µM (inactive) | > 10 µM (inactive) | > 100 µM (inactive) | 64.3 µM (inactive) | 54 µM (inactive) | > 100 µM (inactive) | – | 27.3 µM (inactive) | > 100 µM (inactive) | – | > 100 µM (inactive) | 54.3 µM (inactive)
4 | C(=C\c1ccco1)/c1cccc(/C=C/c2ccco2)n1 | > 50 µM (inactive) | > 50 µM (inactive) | > 50 µM (inactive) | > 50 µM (inactive) | > 50 µM (inactive) | > 50 µM (inactive) | > 50 µM (inactive) | > 50 µM (inactive) | > 50 µM (inactive) | – | > 50 µM (inactive) | > 50 µM (inactive) | > 50 µM (inactive) | > 50 µM (inactive) | > 50 µM (inactive) | > 50 µM (inactive) | > 50 µM (inactive) | > 50 µM (inactive) | > 50 µM (inactive) | > 50 µM (inactive)
5 | Cc1ccc(S(=O)(=O)n2c3c(c4ccccc42)CCN2C[C@H]([C@H](C)Br)CC[C@@H]32)cc1 | 82.8 µM (inactive) | – | > 100 µM (inactive) | > 100 µM (inactive) | > 100 µM (inactive) | 29.2 µM (inactive) | > 100 µM (inactive) | > 100 µM (inactive) | > 100 µM (inactive) | > 100 µM (inactive) | > 100 µM (inactive) | – | > 100 µM (inactive) | > 100 µM (inactive) | > 100 µM (inactive) | > 100 µM (inactive) | > 100 µM (inactive) | > 100 µM (inactive) | > 100 µM (inactive) | 13.1 µM (inactive)
6 | CCOC(=O)/C(C(C)=O)=C(\OC(C)=O)c1ccncc1C(=O)O | > 100 µM (inactive) | > 100 µM (inactive) | – | > 100 µM (inactive) | > 100 µM (inactive) | – | > 100 µM (inactive) | > 100 µM (inactive) | > 100 µM (inactive) | > 100 µM (inactive) | > 100 µM (inactive) | > 100 µM (inactive) | > 100 µM (inactive) | > 100 µM (inactive) | > 100 µM (inactive) | > 100 µM (inactive) | > 100 µM (inactive) | > 100 µM (inactive) | > 100 µM (inactive) | > 100 µM (inactive)
7 | O=C1CCCC[C@H]1C(O)CC1CC(=O)N(c2ccccc2)C(=O)C1 (stereo not given in full) | > 100 µM (inactive) | > 100 µM (inactive) | > 100 µM (inactive) | > 100 µM (inactive) | > 100 µM (inactive) | > 100 µM (inactive) | > 100 µM (inactive) | > 100 µM (inactive) | > 100 µM (inactive) | > 100 µM (inactive) | > 100 µM (inactive) | > 100 µM (inactive) | > 100 µM (inactive) | – | > 100 µM (inactive) | > 100 µM (inactive) | > 100 µM (inactive) | > 100 µM (inactive) | > 100 µM (inactive) | > 100 µM (inactive)
8 | O=C1C(C(c2ccccc2)N2CCOCC2)=C(O)C(c2ccccc2)N1c1ccccc1 (stereo not given) | > 10 µM (inactive) | > 10 µM (inactive) | > 10 µM (inactive) | > 10 µM (inactive) | > 10 µM (inactive) | > 10 µM (inactive) | > 10 µM (inactive) | > 10 µM (inactive) | > 10 µM (inactive) | > 10 µM (inactive) | > 10 µM (inactive) | > 10 µM (inactive) | > 10 µM (inactive) | > 10 µM (inactive) | > 10 µM (inactive) | > 10 µM (inactive) | > 10 µM (inactive) | – | > 10 µM (inactive) | > 10 µM (inactive)
9 | C=C1C(=O)O[C@H]2[C@H]1CC(=O)/C(C)=C/CC[C@@]1(C)O[C@@H]21 | 2.4 µM (inactive) | 1.66 µM (inactive) | 8.36 µM (inactive) | 0.256 µM (active) | 12.7 µM (inactive) | 0.973 µM (active) | 2.01 µM (inactive) | 16.2 µM (inactive) | 0.259 µM (active) | 5 µM (inactive) | 2.15 µM (inactive) | 0.719 µM (active) | 2.08 µM (inactive) | 0.255 µM (active) | 1.13 µM (inactive) | 1.4 µM (inactive) | 0.53 µM (active) | 2.93 µM (inactive) | 3.2 µM (inactive) | –
10 | COc1c(-c2nc3ccc(N4CCN(C)CC4)nc3[nH]2)cc(OC)c2[nH]c(COC(C)=O)nc12 | 15.2 µM (inactive) | 20.4 µM (inactive) | 25 µM (inactive) | 37.1 µM (inactive) | 39.5 µM (inactive) | 16.2 µM (inactive) | 50.4 µM (inactive) | 34.4 µM (inactive) | 24.7 µM (inactive) | 13.8 µM (inactive) | 55.7 µM (inactive) | 20 µM (inactive) | 14.9 µM (inactive) | 28.7 µM (inactive) | 20.3 µM (inactive) | > 100 µM (inactive) | > 100 µM (inactive) | 32.4 µM (inactive) | 28.1 µM (inactive) | –
11 | Cc1ccc(C(=O)NN=C(/N=N/c2cccc(C)c2)c2ccc(N(C)C)cc2)cc1 | > 100 µM (inactive) | > 100 µM (inactive) | – | > 100 µM (inactive) | > 100 µM (inactive) | > 100 µM (inactive) | > 100 µM (inactive) | > 100 µM (inactive) | 50.9 µM (inactive) | > 100 µM (inactive) | > 100 µM (inactive) | > 100 µM (inactive) | > 100 µM (inactive) | > 100 µM (inactive) | > 100 µM (inactive) | > 100 µM (inactive) | > 100 µM (inactive) | > 100 µM (inactive) | > 100 µM (inactive) | > 100 µM (inactive)
